Laboratory results taken from patent US20250206751A1, “HETEROCYCLIC COMPOUND FOR INDUCING DEGRADATION OF G12D MUTANT KRAS PROTEIN” (Astellas Pharma Inc., priority 2022, published 2025).

Key:
[1] = test system: phosphorylation of threonine 202 (Thr202) and tyrosine 204 (Tyr204) of ERK; assay: ERK phosphorylation inhibitory effect by Cell ELISA in AsPC-1 (Test Example 2); type: cell-based, human; settings: Homo sapiens, ASPC1, AsPC-1 cells, cultured overnight with compound; 1 μM trametinib taken as 0%
Summary of the method: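 AsPC-1 cells (G12D KRAS) treated overnight with compound (10 points, 10 μM to 0.3 nM final), then glyoxal-fixed and immunostained for phospho-ERK with a fluorescent secondary read at 800 nm. IC50 by Sigmoid-Emax regression, with DMSO as 100% and 1 μM trametinib as 0%.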

[2] = test system: human G12D mutant KRAS-positive pancreatic cancer line AsPC-1; assay: Non-anchorage-dependent cell growth inhibition, spheroid 3D cell culture (Test Example 3); type: cell-based; settings: AsPC-1 spheroid 3D culture, 6 days, CellTiter Glo 2.0
Summary of the method: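 AsPC-1 spheroids, 5×10^2 cells per well on low-adhesion round-bottom plates in RPMI 1640/10% FBS, dosed next day at 10 or 6 points spanning 10 μM to 0.3 nM final for 6 days at 37° C., 5% CO2. Viability by CellTiter Glo 2.0 luminescence; IC50 by Sigmoid-Emax regression, DMSO 100% and cell-free medium 0%.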

Row | IC50 [1] [nM] | IC50 ([2]; Homo sapiens, ASPC1, 144 h) [nM] | IC50 [2] [nM] | Compound
1 | 8 | 8 | – | CCN(c1nc(OC[C@H](C)OC)nc2c(OCc3ccc(-c4cn([C@H](C(=O)N5C[C@H](O)C[C@H]5C(=O)N[C@@H](CO)c5ccc(-c6scnc6C)cc5)C(C)C)nn4)cc3)c(-c3c(C)c(F)cc4[nH]ncc34)c(C3CC3)cc12)[C@H]1CCNC1 (atropisomer, axis not shown; (M)) [Example 50, (4R)-1-[(2S)-2-(4-{4-[({(7M)-6-cyclopropyl-4-{ethyl[(3S)-pyrrolidin-3-yl]amino}-7-(6-fluoro-5-methyl-1H-indazol-4-yl)-2-[(2S)-2-methoxypropoxy]quinazolin-8-yl}oxy)methyl)phenyl}-1H-1,2,3-triazol-1-yl)-3-methylbutanoyl]-4-hydroxy-N-{(1R)-2-hydroxy-1-[4-(4-methyl-1,3-thiazol-5-yl)phenyl]ethyl}-L-prolinamide]
2 | 11 | 9 | – | Cc1ncsc1-c1ccc([C@H](CO)NC(=O)[C@@H]2C[C@@H](O)CN2C(=O)[C@H](C(C)C)n2cc(-c3ccc(COc4c(-c5c(C)c(F)cc6[nH]ncc56)c(C5CC5)cc5c(N(C)[C@H]6CCNC6)nc(OC[C@H]6CCCO6)nc45)cc3)nn2)cc1 (atropisomer, axis not shown; (M)) [Example 9, (4R)-1-[(2S)-2-{4-[4-({[(7M) 6-cyclopropyl-7-(6-fluoro-5-methyl-1H-indazol-4-yl)-4-{methyl[(3S)-pyrrolidin-3-yl]amino}-2-{[(2R)-oxolan-2-yl]methoxy}quinazolin-8-yl}oxy}methyl)phenyl]-1H-1,2,3-triazol-1-yl}-3-methylbutanoyl]-4-hydroxy-N-{(1R)-2-hydroxy-1-[4-(4-methyl-1,3-thiazol-5-yl)phenyl]ethyl}-L-prolinamide]
3 | 8 | 10 | – | CCn1nccc1-c1ccc([C@H](CO)NC(=O)[C@@H]2C[C@@H](O)CN2C(=O)[C@H](C(C)C)n2cc(-c3ccc(COc4c(-c5c(C)c(F)cc6[nH]ncc56)c(C5CC5)cc5c(N(C)[C@H]6CCNC6)nc(OC[C@H](C)OC)nc45)cc3)nn2)cc1 (atropisomer, axis not shown; (M)) [Example 13]
4 | 9 | 10 | – | CO[C@@H](C)COc1nc(N(C)[C@@H]2CCNC2)c2cc(C3CC3)c(-c3c(C)c(F)cc4[nH]ncc34)c(OCc3ccc(-c4cn([C@H](C(=O)N5C[C@H](O)C[C@H]5C(=O)N[C@@H](CO)c5ccc(-c6scnc6C)cc5)C(C)C)nn4)cc3)c2n1 (atropisomer, axis not shown; (M)) [Example 53]
5 | 24 | – | 19 | CO[C@@H](C)COc1cc(N(C)[C@H]2CCNC2)c2cc(C3CC3)c(-c3c(C)c(F)cc4[nH]ncc34)c(OCc3ccc(-c4cn([C@H](C(=O)N5C[C@H](O)C[C@H]5C(=O)N[C@@H](CO)c5ccc(-c6scnc6C)cc5)C(C)C)nn4)cc3)c2n1 (atropisomer, axis not shown; (M)) [Example 11, (4R)-1-[(2S)-2-{4-[4-({[(7M)-6-cyclopropyl-7-(6-fluoro-5-methyl-1H-indazol-4-yl)-2-[(2S)-2-methoxypropoxy]-4-{methyl[(3S)-pyrrolidin-3-yl]amino}quinazolin-8-yl]oxy}methyl)phenyl]-1H-1,2,3-triazol-1-yl}-3-methylbutanoyl]-4-hydroxy-N-{(1R)-2-hydroxy-1-[4-(4-methyl-1,3-thiazol-5-yl)phenyl]ethyl}-L-prolinamide]
